Assay results published in article PMC7985170, “Marine Peptide-N6NH2 and Its Derivative-GUON6NH2 Have Potent Antimicrobial Activity Against Intracellular Edwardsiella tarda in vitro and in vivo” (Frontiers in Microbiology, 2021).

What was measured:
[1] = tested on: E. tarda; assay: Time-killing curve; assay type: cell-based, Edwardsiella tarda; conditions: 2× MIC
Method: Time-killing curve of peptides was performed according to the previous method ([Flamm et al., 2019]). E. tarda was cultured to logarithmic phase, diluted in Mueller Hinton broth (MHB) (1 × 10^5 CFU/mL) containing 1×, 2×, or 4× MIC of peptides, and cultured at 28°C (200 rpm). PBS was added as a control. Bacterial samples (100 μL) were removed at different time intervals (0, 0.5, 1, 1.5, 2, 4, 6, 8, 10, 12, 22, and 24 h) and were counted on MH solid plates. The time-killing curves of peptides were plotted. Bacterial cells treated with 2× MIC norfloxacin and without treatment were used as the positive and blank controls, respectively.

[2] = tested on: E. tarda; assay: Post-antibiotic effect (PAE); assay type: cell-based, Edwardsiella tarda; conditions: 2 h exposure, E. tarda, 28°C, n = 3
Method: E. tarda cells were incubated with peptides (1×, 2×, or 4× MIC) for 2 h, diluted, and cultured at 28°C and 200 rpm. An aliquot of samples (50 μL) were taken for CFU counts at different time intervals until bacterial cultures became turbid. Bacteria treated with the N6NH2, GUON6NH2 or vancomycin were used as the positive control; bacteria without treatment were used as the blank control. The PAE was calculated using the following formula: PAE = T–C, where T is the time for the CFU counts to increase by 10-fold above the count observed immediately after drug removal, and C is the corresponding time for the untreated control ([Oh et al., 2019]).

[3] = tested on: LPS; assay: LPS binding, BODIPY-TR-cadaverine (BC) probe displacement; conditions: 0.5 μM LPS, 5 μM BC, Tris buffer pH 7.4; peptides 0.049 to 50 μM
Method: The BODIPY’-TR-cadaverine (BC) probe was used to determine the ability of peptides to bind to LPS ([Wang et al., 2020]). 0.5 μM LPS was incubated with 5 μM BC in […] Tris buffer (pH 7.4) for 4 h at 37°C. Subsequently, the peptides were added into the mixture and the final concentrations of peptides ranged from 0.049 to 50 μM. Ampicillin was used as the negative control. Changes in fluorescence were measured by a fluorescence spectrophotometry at room temperature (excitation/emission, 580/620 nm).

[4] = tested on: E. tarda; assay: SEM and TEM morphology; assay type: cell-based, Edwardsiella tarda; conditions: 4× MIC, 2 h
Method: To further characterize the bactericidal effects of the peptides, scanning electron microscopy (SEM) and transmission electron microscopy (TEM) were used to visualize morphological changes ([Yang et al., 2019]). E. tarda was cultured to logarithmic growth stage (10^8 CFU/mL) and diluted with 0.01 M PBS (pH 7.4) to OD600 nm = 1. E. tarda cells were treated with 4× MIC peptides at 37°C for 2 h and the untreated cells were used as the control. Briefly, after centrifugation, the bacterial cells were washed three times with 0.1 M PBS (pH 7.2) and fixed overnight at 4°C with 2.5% glutaraldehyde. After washing again, the cells were fixed with 1% osmium tetroxide (OsO4) for 2 h and dehydrated in a graded ethanol series (50%–70%–85%–95% × 2–100%, × 2) for 15 min, respectively. The samples were then dried by CO2, sputtered with gold-palladium, and observed on a QUANTA200 SEM (FEI, Philips, Netherlands).
E. tarda cells were treated peptides before fixation as described above. The bacteria were washed with 0.01 M PBS (pH 7.4) for five times, 7 min each time, and fixed with 1% osmium acid buffer (4°C) for 1 h. After dehydration with a graded acetone series (30%–50%–70%–85%–95%–100% × 3), the cells were immersed in mixtures of acetone and resin (3:1, 1:1 and 1:3, respectively) for 40 min and in a pure epoxy resin overnight. The samples were then embedded in embedding medium and polymerized at 45°C for 3 h and at 65°C for 24 h, respectively. The sections were prepared using an ultramicrotome, stained with 1% uranyl acetate, and visualized by a JEM1400 (JEDL, Tokyo, Japan).

[5] = tested on: E. tarda; assay: Mouse peritonitis model, survival; assay type: in vivo; conditions: 1 μmoL/kg i.p. at 1 h postinfection, ICR mice, 5 days
Method: To establish a peritonitis mouse model, six-week-old female ICR mice (five mice/group) were intraperitoneally injected with E. tarda (1 × 10^9 CFU/mL, 0.5 mL). The infected mice were followed by the intraperitoneal injection of N6NH2, GUON6NH2 or norfloxacin (1 μmol/kg of body weight, 0.2 mL) at 1 h postinfection, respectively. Mice injected with only bacteria or PBS were used as negative or blank controls. The survival of mice was recorded daily for 5 days.

[6] = tested on: E. tarda; assay: Mouse peritonitis model, bacterial counts in peritoneal fluid; assay type: in vivo; conditions: 1 μmol/kg i.p.
Method: The mice were intraperitoneally infected with E. tarda (1 × 10^9 CFU/mL, 0.5 mL) and then injected with N6NH2 and GUON6NH2 (1 μmol/kg) or PBS (the blank control) in the same way at 1 h after infection. The mice were then killed at 24 h after treatment, and peritoneal fluids were obtained by washing with 5 mL of ice-cold PBS. The total number of E. tarda in the fluids was determined before any further procedures. For intracellular bacteria quantification, the other fraction was centrifuged for 5 min at 4°C (1,000 rpm). The cells were collected, treated with 1,000 μg/mL gentamicin for 30 min at 37°C to kill extracellular bacteria, and washed with ice-cold PBS twice to remove extracellular gentamicin. Subsequently, the cells were lysed and the bacteria were counted as described above for the in vitro experiment ([Kim et al., 2011]).

CCn1cc(C(=O)O)c(=O)c2cc(F)c(N3CCNCC3)cc21 [norfloxacin, reference compound]
time of bacterial re-growth [1]: 12 h
PAE ([2]; 1× MIC): 2.65 h
PAE ([2]; 2× MIC): 3.48 h
PAE ([2]; 4× MIC): 3.12 h
ability to bind to LPS (BC probe displacement) [3]: did not replace BC probe to bind to LPS
morphological changes by SEM [4]: no significant change in the bacterial cell structures
ultrastructure changes by TEM [4]: no significant change in bacterial cells
survival rate of mice [5]: 40%
decrease of total numbers of bacteria ([6]; peritoneal fluid 24 h after treatment): 0.49 Log10 CFU
reduction of intracellular bacteria ([6]; peritoneal fluid cells 24 h after treatment): 0.35 Log10 CFU
